# According to patent US20220151292A1, “NICOTINE POUCH COMPOSITION” (NCP NextGen A/S, priority 2020, published 2022):
# Experiments:
# Assay type in all cases: physicochemical
# [1] = Release experiment: nicotine released from NPR (16%) in water with varying equivalents of MgCl2 (Example 6C); conditions: nicotine 28 mg/L, 25 degrees Celsius, 100 rpm, HPLC
# Description: (§1) The release experiment was performed by adding NPR (16%) and varying equivalents of MgCl2 to a volume of water corresponding to a nicotine concentration of 28 mg/L. The equivalents of MgCl2 are relative to nicotine. The temperature of the water was 25 degrees Celsius throughout the experiment and stirring of 100 rpm was applied throughout the experiment. pH was measured at experiment start and end. The pH was in all experiments below 7.0 at both the start and end of the experiment.
# (§2) A relative low nicotine concentration is used in order to reduce the impact of equilibrium on both the release rate and effective release of nicotine from the ion-exchange resin.
# (§3) Samples were taken out at varying timepoints and analyzed for nicotine content using standard HPLC. The result is presented as percentage of nicotine released.
# [2] = Release experiment: nicotine released from NPR (16%) in water with 1 equivalent of AlCl3 (Example 6E); conditions: 1 equivalent AlCl3, water, nicotine 28 mg/L, 25 degrees Celsius, 150 rpm, HPLC
# Description: as §1, with “1 equivalent” for “varying equivalents”, “AlCl3” for “MgCl2”, “equivalents” for “equivalents of MgCl2”, “150” for “100”
# as §2, §3
# [3] = Release experiment: nicotine released from NPR (16%) in water with varying equivalents of CaCl2 (Example 6B); conditions: nicotine 28 mg/L, 25 degrees Celsius, 100 rpm, HPLC
# Description: as §1, with “varying equivalent” for “varying equivalents”, “of CaCl2” for “of MgCl2”
# as §2, §3
# [4] = Release experiment: nicotine released from NPR (16%) in water with varying salts (CaCl2, NaCl) and equivalents (Example 6A); conditions: NPR (16%) in 900 mL water, nicotine 28 mg/L, 25 degrees Celsius, 100 rpm, HPLC
# [5] = Release experiment: nicotine released from nicotine premixes of varying nicotine content with 1 equivalent of CaCl2 (Example 6D); conditions: nicotine premix, 1 equivalent CaCl2, water, nicotine 28 mg/L, 25 degrees Celsius, 150 rpm, HPLC
# Description: The release experiment was performed by adding nicotine premix having varying content of nicotine and 1 equivalent of CaCl2 to a volume of water, whereby a corresponding nicotine concentration of 28 mg/L is obtained. The equivalent of CaCl2 is relative to nicotine. The temperature of the water was 25 degrees Celsius throughout the experiment and stirring of 150 rpm was applied throughout the experiment. pH was measured at experiment start and end. The pH was in all experiments below 7.0 at both the start and end of the experiment.
# as §2, §3
compound,measurement,setting,value
[Cl-].[Cl-].[Mg+2] [MgCl2],effect of MgCl2 on release of nicotine from NPR,[1],significantly increases the release of nicotine
[Cl][Al]([Cl])[Cl] [AlCl3],effect of AlCl3 on release of nicotine from NPR,[2],significantly increases the release of nicotine
[Ca+2].[Cl-].[Cl-] [CaCl2],effect of CaCl2 on release of nicotine from NPR,[3],significantly increases the release of nicotine
same,effect of the salt on release of nicotine from NPR,[4],significantly increases the release of nicotine
same,effect of CaCl2 on release of nicotine from premixes,[5],significantly increases the release of nicotine
"[Cl-].[Na+] [NaCl, reference compound]",effect of the salt on release of nicotine from NPR,[4],much lower effect on the release of nicotine
